Calls of active or inactive are those of the source.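 How the source made its calls: active means compounds giving half or more protection of infected cells from virus-caused growth loss, again on retest; inactive means the rest.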
System: CEM cells HIV-1 protection, formazan growth assay
Assay: NCI AIDS Antiviral Assay
Conditions: for IC50: measured here: growth of uninfected CEM cells
Procedure, shortened: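 Category rules: moderately active means at least 50% protection on retest, and confirmed active means 100% protection reproducibly. The underlying data came from a formazan growth assay in HIV-1-infected CEM cells.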

Compound	EC50 [µM]	IC50 [µM]	outcome
CCOC(=O)NC(C(F)(F)F)(C(F)(F)F)P(=O)(OCC(C)C)OCC(C)C	> 200	5.37	–
CC(=O)Nc1oc(C)c(C)c1S(=O)(=O)c1ccc(Cl)cc1	> 200	107	–
N#Cc1c(N2CCN(c3ccc([N+](=O)[O-])cc3)CC2)[n+](=O)c2ccc(Cl)cc2n1[O-]	> 20	0.631	–
CCCCCCCCCCCC(=O)OCC1OC(OC)C(NC(=O)N(CCCl)N=O)C(O)C1O (configuration not stated)	> 26.3	22.4	–
CCOC(=O)Nc1nc2ccc(Cn3cccc3)cc2[nH]1	> 13.2	0.794	–
O=C(NC(=O)c1cn(CCN(CCO)C(=O)NCCCCCCNC(=O)N(CCO)CCn2cc(C(=O)NC(=O)OCc3ccccc3)c(=O)[nH]c2=O)c(=O)[nH]c1=O)OCc1ccccc1	–	–	inactive
Cc1ccc(NC(=O)C(=O)C2C(=O)NC(=O)NC2=O)c(C)c1	> 832	> 832	–
CC(C)=CC(=O)C1c2cccc(O)c2C(=O)c2c(O)cc(C)cc21 (configuration not stated)	> 30.9	10.2	–
COC(=O)C1(C(=O)OC)CC(=O)c2cc3c(cc2-c2c(cc(OC)c(OC)c2OC)C1)OCO3	> 28.8	> 28.8	–
Cc1nc2c(cc1C(=O)NN)c(=O)n(C)c(=O)n2C	> 200	> 200	–
CN1CCC2(CC1)C(=O)N(Cc1ccccc1)C(=O)C2c1ccccc1 (configuration not stated)	> 372	214	–
O=C(O)CSCc1cc(C(=O)Nc2ccc(/C=C/c3ccc(NC(=O)c4cc(CSCC(=O)O)c5cccnc5c4O)cc3S(=O)(=O)O)c(S(=O)(=O)O)c2)c(O)c2ncccc12	0.832	22.4	–
FC(F)(F)c1ccc2c(c1)N(CCCN1CCNCC1)c1ccccc1S2	> 34.7	21.4	–
COc1cccc(NC(=O)CSc2nnc(Cc3ccccc3)o2)c1	> 100	> 100	–
Cn1nnnc1SCC1=C(C(=O)O)N2C(=O)C(NC(=O)C(OC=O)c3ccccc3)C2SC1 (configuration not stated)	> 200	> 200	–
CN1CN(c2ccccc2)C2(CCN(Cc3csc4ccccc34)CC2)C1=O	> 200	66.1	–
CCOC(=O)c1ccc(CS(=O)c2ccc(N)cc2)c([N+](=O)[O-])c1 (configuration not stated)	> 102	26.9	–

Compound	EC50 [µM]	IC50 [µM]	outcome
N#CCc1nc2ccccc2c(=O)[nH]1	17.8	69.2	–
CCCc1cc(=O)oc2c3c(cc(OC(C)C)c12)O[C@H](C)[C@@H](C)/C3=N/O	> 200	3.8	–
O=C(NCCCCNCCCNC(=O)c1cc(-c2ccccc2)nc2ccccc12)c1cc(-c2ccccc2)nc2ccccc12	> 20	3.16	–
O=[N+]([O-])c1cccnc1S(=O)(=O)c1ccccc1	> 490	1.1	–
OC(CN(Cc1nc2ccccc2[nH]1)Cc1nc2ccccc2[nH]1)CN(Cc1nc2ccccc2[nH]1)Cc1nc2ccccc2[nH]1	> 200	2.51	–
CC1=C2C(O)C(C(C)CO)C(O)CC2(C)C(O)CC1 (configuration not stated)	–	–	inactive
O=C1C=C(Nc2ccccc2C(=O)CC(=O)C(=O)Nc2ccc(Cl)c(Cl)c2)c2ccccc2C1=O	> 26.9	> 26.9	–
CC1=NNC(=O)C12CC2	–	–	inactive
N#Cc1ccc(C=C2C(=O)c3ccccc3C2=O)cc1	> 72.4	46.8	–
COc1ccc2c(c1)C=C(C(C)(C)C)NS2(=O)=O	> 97.7	> 97.7	–
CC(=O)OCC(=O)[C@@]12OC(C)(C)O[C@@H]1C[C@H]1[C@@H]3CC(C=O)=C4C=C(OCCCl)CC[C@]4(C)[C@@]3(F)[C@@H](O)C[C@@]12C	> 200	6.46	–
O=C(O)c1c(F)c(F)c(S)c(F)c1F	17.8	> 200	–
CC1(Cl)C(=O)NC(=O)NC1O (configuration not stated)	> 200	> 200	–
O=C1c2ccccc2-c2nccc3ccnc1c23	–	–	inactive
CCOC(=O)/C=C/SC(C)(C)C(N)C(=O)O (configuration not stated)	> 1000	> 1000	–
Cc1cccc2c1Sc1ccccc1C2NC(=O)CN(C)C (configuration not stated)	> 417	102	–

Reference: PubChem BioAssay AID179 (DTP/NCI, 2004)
